A word on the Ki: it is a measure of affinity in units of concentration, obtained from inhibition or displacement. As usually defined, the Kd is the constant that tells how readily two partners part at equilibrium. By Emax is commonly meant the maximal effect, on the per cent scale that the assay sets. One may read the EC50 as the concentration at which the effect is half-maximal.

The target of experiment [1] is T1, human 5-hydroxytryptamine2C (h5HT2C) receptor (Homo sapiens, UniProt P28335).
T1 construct: expressed in transfected cells; host or cells: CHO (Chinese Hamster Ovary) cells; membrane preparation
T1 sequence (P28335 33-458): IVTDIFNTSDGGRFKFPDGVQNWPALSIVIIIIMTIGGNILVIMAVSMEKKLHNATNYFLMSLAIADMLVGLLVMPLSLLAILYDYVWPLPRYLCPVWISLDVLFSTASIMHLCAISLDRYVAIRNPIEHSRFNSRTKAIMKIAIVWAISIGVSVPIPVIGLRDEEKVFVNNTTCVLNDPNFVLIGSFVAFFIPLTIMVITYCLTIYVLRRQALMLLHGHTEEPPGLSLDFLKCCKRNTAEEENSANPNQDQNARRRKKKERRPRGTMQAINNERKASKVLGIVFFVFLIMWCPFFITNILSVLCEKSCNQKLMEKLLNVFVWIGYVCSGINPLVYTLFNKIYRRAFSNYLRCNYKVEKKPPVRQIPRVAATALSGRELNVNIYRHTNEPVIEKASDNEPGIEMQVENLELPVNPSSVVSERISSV
In words: 5HT2C receptor binding ([125I]DOI displacement, CHO cell membranes).

In experiment [2] the target is T2, human 5-HT2C receptor (Homo sapiens, UniProt P28335).
T2 sequence (P28335 33-458): T1 sequence (P28335 33-458)
Nature of the experiment: Calcium mobilization in response to 5-HT2C receptor agonists (FLIPR, CHO cells). In kind it is cell-based. Conditions: for Emax: CHO, read-out: 5-HT2C Function Emax (%) (5-HT, 100%); for EC50: calcium mobilization, CHO cells stably expressing human 5-HT2C, read-out: 5-HT2C Function EC50. For orientation: A change in cytosolic calcium serves as a functional read-out for many receptors and channels.

Where a name gives a salt, the structure may show the parent alone. Read-outs that look alike come from different tables or passages of the source.

Consider `Clc1cc2c3c(c1)C1CCCCCC1CN3CCNC2` (stereo not shown) [Example 20, 2-chloro-4,5,6,7,9,9a,10,11,12,13,14,14a-dodecahydrocyclohepta[c][1,4]diazepino[6,7,1-ij]quinoline hydrochloride], for which affinity in experiment [1] was put at a Ki of 0.373 µM.
In experiment [1], `c1cc2c3c(c1)[C@H]1CCCCC[C@H]1CN3CCNC2` [Example 10, (9aR,14aS)-4,5,6,7,9,9a10,11,12,13,14,14a-dodecahydrocyclohepta[c][1,4]diazepino[6,7,1-ij]quinoline hydrochloride] gave an inhibition constant (Ki) of 0.056 µM.
In experiment [1], `Brc1cc2c3c(c1)C1CCCCCC1CN3CCNC2` (stereo not shown) [Example 16, 2-bromo-4,5,6,7,9,9a,10,11,12,13,14,14a-dodecahydrocyclohepta[c][1,4]diazepino[6,7,1-ij]quinoline hydrochloride] displayed a Ki of 2.3 µM.
Same read-out and setting: next, `Fc1ccc2c3c1C1CCCC1CN3CCNC2` (stereo not shown) [Example 26, 1-fluoro-4,5,6,7,9,9a,10,11,12,12a-decahydrocyclopenta[c][1,4]diazepino[6,7,1-ij]quinoline hydrochloride]: 0.02 µM.
On the same count and under the same terms, with `Fc1ccc2c3c1C1CCCCCC1CN3CCNC2` (stereo not shown) [Example 28, 1-fluoro-4,5,6,7,9,9a,10,11,12,13,14,14a-dodecahydrocyclohepta[c][1,4]diazepino[6,7,1-ij]quinoline hydrochloride] the figure was 0.169 µM.
`COc1cc(CC(C)N)c(OC)cc1I` (stereo not shown) [[^125I]DOI, reference compound]: the Kd in experiment [1] (read-out: dissociation constant, KD of [125I]DOI at the human serotonin 5HT2C receptor, saturation binding with increasing concentrations of [125I]DOI) came to 0.0004 µM.
In experiment [1], `FC(F)(F)c1ccc2c3c1C1CCCC1CN3CCNC2` (stereo not shown) [Example 30, 1-(trifluoromethyl)-4,5,6,7,9,9a,10,11,12,12a-decahydrocyclopenta[c][1,4]diazepino[6,7,1-ij]quinoline hydrochloride] gave an inhibition constant Ki of 0.059 µM.
On the same count and under the same terms, with `c1ccc(-c2cc3c4c(c2)C2CCCC2CN4CCNC3)cc1` (stereo not shown) [Example 22, 2-phenyl-4,5,6,7,9,9a,10,11,12,12a-decahydrocyclopenta[c][1,4]diazepino[6,7,1-ij]quinoline hydrochloride] the figure was 0.088 µM.
`c1cc2c3c(c1)C1CCCCC1CN3CCNC2` (stereo not shown) [Example 6, 4,5,6,7,9a,10,11,12,13,13a-decahydro-9H-[1,4]diazepino[6,7,1-de]phenanthridine hydrochloride] yielded an inhibition constant Ki in experiment [1] of 0.024 µM. Further, in experiment [2], the maximum response (Emax) amounted to 60% and the 50% effective concentration (EC50) stood at 0.065 µM.
Compound `c1cc2c3c(c1)[C@@H]1CCCCC[C@@H]1CN3CCNC2` [Example 12, (9aS,14aR)-4,5,6,7,9,9a,10,11,12,13,14,14a-dodecahydrocyclohepta[c][1,4]diazepino[6,7,1-ij]quinoline hydrochloride] gave an inhibitory constant (Ki) in experiment [1] of 0.117 µM.
The same measure, in the same setting: next, `COc1cc2c3c(c1)C1CCCC1CN3CCNC2` (stereo not shown) [Example 24, 2-methoxy-4,5,6,7,9,9a,10,11,12,12a-decahydrocyclopenta[c][1,4]diazepino[6,7,1-ij]quinoline hydrochloride]: 0.199 µM.
For the compound `CSc1ccc2c(c1)C(N1CCN(C)CC1)Cc1ccccc1S2` (stereo not shown) [Methiothepin, reference compound], the inhibition constant (Ki) in experiment [1] ([125I]DOI binding, CHO membranes expressing h5HT2C, 95% confidence interval in brackets, read-out: Ki (95% confidence interval), reference compounds) amounted to 0.0046 µM.
In the case of `c1cc2c3c(c1)C1CCCC1CN3CCNC2` (single isomer, unassigned; (-)) [Example 4, (−)-4,5,6,7,9,9a10,11,12,12a-decahydrocyclopenta[c][1,4]diazepino[6,7,1-ij]quinoline], the Ki in experiment [1] was 0.003 µM. For the same compound, in experiment [2], the maximal effect (Emax) is 100% and the EC50 was 0.008 µM.
The like results for `c1cc2c3c(c1)C1CCCCCC1CN3CCNC2` (stereo not shown) [Example 8, 4,5,6,7,9,9a,10,11,12,13,14,14a-dodecahydrocyclohepta[c][1,4]diazepino[6,7,1-ij]quinoline] were, in that order, 0.013 µM, 70% and 0.261 µM.
Consider `COc1cc2c3c(c1F)C1CCCCCC1CN3CCNC2` (stereo not shown) [Example 34, 1-fluoro-2-methoxy-4,5,6,7,9,9a,10,11,12,13,14,14a-dodecahydrocyclohepta[c][1,4]diazepino[6,7,1-ij]quinoline hydrochloride], for which affinity in experiment [1] was put at a Ki of 0.249 µM.
`COc1cc2c3c(c1F)C1CCCC1CN3CCNC2` (stereo not shown) [Example 32, 1-fluoro-2-methoxy-4,5,6,7,9,9a,10,11,12,12a-decahydrocyclopenta[c][1,4]diazepino[6,7,1-ij]quinoline hydrochloride] yielded a Ki in experiment [1] of 0.223 µM.

The values are drawn from patent publication US7687620B2, “[1,4]diazepino[6,7,1-IJ]quinoline derivatives as antipsychotic and antiobesity agents” (Wyeth LLC, priority 2002, dated 2010).
